Measured values reported in patent US11478515B2, “Compositions comprising probiotic and prebiotic components and mineral salts, with lactoferrin” (GlaxoSmithKline Consumer Healthcare S.R.L., priority 2009, dated 2022).
Where a SMILES comes first, the peptide text is derived from it. Bridges are numbered along the chain shown (N, C = ends). [ ]: non-standard residue; d: D form. The star is where a group is joined. Ileψ(thiazoline)Cys = CC[C@H](C)[C@H](N)C1=N[C@H](C(=O)*)CS1; dOrn = NCCC[C@@H](N)C(=O)O

System: Bifidobacterium longum R175
Assay: antibiotic resistance profile
Assay type: cell-based
Conditions: dose of each agent

## CC1(C)S[C@@H]2[C@H](NC(=O)[C@H](N)c3ccccc3)C(=O)N2[C@H]1C(=O)O [Ampicillin]
  outcome (antibiotic resistance profile): susceptible

## CC[C@H](C)[C@H](N)C1=N[C@H](C(=O)N[C@@H](CC(C)C)C(=O)N[C@H](CCC(=O)O)C(=O)N[C@H](C(=O)N[C@H]2CCCCNC(=O)[C@H](CC(N)=O)NC(=O)[C@@H](CC(=O)O)NC(=O)[C@H](Cc3cnc[nH]3)NC(=O)[C@@H](Cc3ccccc3)NC(=O)[C@H]([C@@H](C)CC)NC(=O)[C@@H](CCCN)NC2=O)[C@@H](C)CC)CS1 [Bacitracin] ({Ileψ(thiazoline)Cys}-L[dE]IK[dOrn]I[dF]H[dD]N; lactam 4-C)
  outcome (antibiotic resistance profile): susceptible

## CO[C@H]1/C=C/O[C@@]2(C)Oc3c(C)c(O)c4c(O)c(c(/C=N/N5CCN(C)CC5)c(O)c4c3C2=O)NC(=O)/C(C)=C\C=C\[C@H](C)[C@H](O)[C@@H](C)[C@@H](O)[C@@H](C)[C@H](OC(C)=O)[C@@H]1C [Rifampin]
  outcome (antibiotic resistance profile): susceptible

## CN[C@H](CC(C)C)C(=O)N[C@H]1C(=O)N[C@@H](CC(N)=O)C(=O)N[C@H]2C(=O)N[C@H]3C(=O)N[C@H](C(=O)N[C@H](C(=O)O)c4cc(O)cc(O)c4-c4cc3ccc4O)[C@H](O)c3ccc(c(Cl)c3)Oc3cc2cc(c3O[C@@H]2O[C@H](CO)[C@@H](O)[C@H](O)[C@H]2O[C@H]2C[C@](C)(N)[C@H](O)[C@H](C)O2)Oc2ccc(cc2Cl)[C@H]1O [Vancomycin]
  outcome (antibiotic resistance profile): susceptible

## CC(=O)OCC1=C(C(=O)O)N2C(=O)[C@@H](NC(=O)Cc3cccs3)[C@H]2SC1 [cephalothin]
  outcome (antibiotic resistance profile): susceptible

## O=C(N[C@H](CO)[C@H](O)c1ccc([N+](=O)[O-])cc1)C(Cl)Cl [chloramphenicol]
  outcome (antibiotic resistance profile): susceptible

## CC[C@H]1OC(=O)[C@H](C)[C@@H](O[C@H]2C[C@@](C)(OC)[C@@H](O)[C@H](C)O2)[C@H](C)[C@@H](O[C@@H]2O[C@H](C)C[C@H](N(C)C)[C@H]2O)[C@](C)(O)C[C@@H](C)C(=O)[C@H](C)[C@@H](O)[C@]1(C)O [erythromycin]
  outcome (antibiotic resistance profile): susceptible

## CCC[C@@H]1C[C@@H](C(=O)N[C@@H]([C@H]2O[C@H](SC)[C@H](O)[C@@H](O)[C@H]2O)[C@@H](C)O)N(C)C1 [lincomycin]
  outcome (antibiotic resistance profile): intermediate

## CO[C@@H]1[C@@H](OC(N)=O)[C@@H](O)[C@H](Oc2ccc3c(O)c(NC(=O)c4ccc(O)c(CC=C(C)C)c4)c(=O)oc3c2C)OC1(C)C [novobiocin]
  outcome (antibiotic resistance profile): susceptible

## CC1(C)S[C@@H]2[C@H](NC(=O)Cc3ccccc3)C(=O)N2[C@H]1C(=O)O [penicillin G]
  outcome (antibiotic resistance profile): susceptible

## [H]/N=C(/N)N[C@H]1[C@H](O)[C@@H](O)[C@H](O[C@@H]2O[C@@H](C)[C@](O)(C=O)[C@H]2O[C@@H]2O[C@@H](CO)[C@H](O)[C@@H](O)[C@@H]2NC)[C@@H](N/C(N)=N\[H])[C@@H]1O [streptomycin]
  outcome (antibiotic resistance profile): resistant

## Cc1noc(NS(=O)(=O)c2ccc(N)cc2)c1C [sulfisoxazole]
  outcome (antibiotic resistance profile): resistant

## Neomycin
  outcome (antibiotic resistance profile): resistant

## Polymyxin B
  outcome (antibiotic resistance profile): resistant

## gentamycin
  outcome (antibiotic resistance profile): resistant
